One compound from patent US9095505B2, “Pyrethroids for treatment of ocular movement disorders” (RBG Group, LTD., priority 2013, dated 2015) can be followed below.

“Also recorded” adds a separate entry of the source.

For this assay, the system named is canine subjects. As to the kind of experiment: Eye movement recording of nystagmus in canine subjects (amplitude, NAFX). In kind it is in vivo. The procedure:
Eye movements were recorded using an EyeLink 1000 remote video recording system, with a sampling rate of 500-1000 Hz.
Efficacy was assessed by video-based eye tracking system wherein eye movement recordings of nystagmus and determination of Nystagmus Acuity Function (NAF, NAFX or eNAFX) was calculated from position and velocity data obtained from calibrated eye movement recordings. Techniques used to collect such data include a scleral search coil, non-contact infrared oculography, video pupillography and electroculography.
Nystagmus Acuity Function—NAF is a derived function that predicts the best-corrected visual acuity possible in subjects with nystagmus. NAF is based upon objective measurements of a subject's waveform characteristics during fixation of a small light-emitting diode and combines the foveation time per cycle and the standard deviations of both eye position and velocity during target foveation into a function that is linearly proportional to best-possible visual acuity.
Evaluation of the nystagmus acuity function (NAF, NAFX, eNAFX) is often used to evaluate the quality of the nystagmus cycle and/or quantify the effect of surgical or pharmaceutical intervention on the nystagmus waveform. […]
Amplitude—The amplitude of nystagmus was measured directly from calibrated eye movement recordings in degrees. […]

As for `CC1(C)C(/C=C(\Cl)C(F)(F)F)C1C(=O)OC(C#N)c1cccc(Oc2ccccc2)c1` [LC, (R)-cyano(3-phenoxyphenyl)methyl(1S,3S)-rel-3-[(1Z)-2-chloro-3,3,3-trifluoro-1-propenyl]-2,2-dimethylcyclopropanecarboxylate], the “high frequency (9-11) Hz pendular oscillation in eye position recording” value (after two doses of 0.6% topical eye drop, compared to Pre Drop recording of FIG. 1) was “less amplitude as compared to the Pre Drop eye movement recording; also recorded: only present only in extreme gaze”. Further, the effect on nystagmus result (after two doses of 0.6% w/w formulation) was “significant improvement of nystagmus”.
